According to patent US11919858B2, “Aminonapthoquinone compounds and pharmaceutical composition for blocking ubiquitination-proteasome system in diseases” (Calgent Biotechnology Co., Ltd., priority 2015, dated 2024):
Like-named read-outs stand apart in the source and are kept apart here.

Experiments:
Hep 3B = experiment: Growth inhibition assay; assay type: cell-based; conditions: Homo sapiens, Hep3B; read-out: Hep3B GI50 (μM) Mean ± S.E.
Protocol: (§1) Cells were seeded in 96-well plastic plates and exposed to MPT0L056 for 48 hours. Cell viability was assessed using the 3-(4,5-dimethylthiazol-2-yl)-2,5-diphenyltetrazolium bromide assay. Growth inhibition was expressed as the percentage of surviving cells in drug-treated versus DMSO-treated control cells.
(§2) The compounds of the invention were subjected to growth inhibition assay.

HL-60 = experiment: Growth inhibition assay; assay type: cell-based; conditions: Homo sapiens, HL-60; read-out: HL-60 IC50 (μM) Mean ± S.E.
Protocol: as §1, §2

HCT-116 = experiment: Growth inhibition assay; assay type: cell-based; conditions: Homo sapiens, HCT-116; read-out: HCT-116 GI50 (μM) Mean ± S.E.
Protocol: as §1, §2

MDA-MB-231 = experiment: Growth inhibition assay; assay type: cell-based; conditions: Homo sapiens, MDA-MB-231; read-out: MDA-MB-231 GI50 (μM) Mean ± S.E.
Protocol: as §1, §2

[1] = system: HCT116 human colorectal adenocarcinoma
Protocol: MPT0L056 was used to evaluate for activity against the HCT116 human colorectal adenocarcinoma.
However, MPT0E028 was administered orally (p.o.) in 1.0% CMC and 0.5% Tween 80 and given dose at 25 mg/kg daily to end schedule.
Each animal was euthanized when the tumors reached the predetermined endpoint size of 1,000 mm^3. The time to endpoint (TTE) for each mouse was calculated by the following equation:
[formula] where TTE is expressed in days, endpoint volume is in mm^3, b is the intercept, and m is the slope of the line obtained by linear regression of a log-transformed tumor growth data set. The data set is comprised of the first observation that exceeded the study endpoint volume and the three consecutive observations that immediately preceded the attainment of the endpoint volume. The calculated TTE is usually less than the day on which an animal is euthanized for tumor size. […] An animal classified as having died from treatment-related (TR) causes or non-treatment-related metastasis (NTRm) causes was assigned a TTE value equal to the day of death. An animal classified as having died from non-treatment-related (NTR) causes was excluded from TTE calculations.
Treatment efficacy was determined from tumor growth delay (TGD), which is defined as the increase in the median TTE for a treatment group compared to the control group: TGD=T−C, expressed in days, or as a percentage of the median TTE of the control group:
[formula] where: • T=median TTE for a treatment group, • C=median TTE for control Group 1.
Treatment efficacy was also determined from the tumor volumes of animals remaining in the study on the last day, and from the number of regression responses. The MTV(n) is defined as the median tumor volume on D59 in the number of animals remaining, n, whose tumors have not attained the endpoint volume.
Treatment may cause a partial regression (PR) or a complete regression (CR) of the tumor in an animal. […] An animal with a CR at the termination of a study is additionally classified as a tumor-free survivor (TFS).
Animals were weighed daily for the first five days, then twice weekly until the completion of the study. The mice were examined frequently for overt signs of any adverse, drug-related side effects. Acceptable toxicity for the MTD of cancer drugs is defined as a group mean BW loss of 20% or less during the test, and not more than one TR death among ten animals. A death is classified as TR if there is evidence of treatment side effects from clinical signs and/or necropsy or from unknown causes during dosing period or within 10 days of the last dose. A death is classified as NTR if there is no evidence that the death was related to treatment side effects.
The logrank test was used to determine the statistical significance of the difference between the TTE values of two groups, except any NTR deaths. Statistical and graphical analyses were performed with Prism 3.03 (GraphPad) for Windows. The two-tailed statistical analyses were conducted at P=0.05. Kaplan-Meier plots show the percentage of animals remaining in the study versus time. The Kaplan-Meier plots use the same data set as the log rank test. The tumor growth curves show the group median tumor volume, on a log scale as a function of time.

[2] = Group 1 vs 2: MPT0E028 25 mg/kg
[3] = Group 2: MPT0E028 25 mg/kg po qd to endpoint

Row | Compound | IC50 (HL-60) [µM] | GI50 (HCT-116) [µM] | GI50 (MDA-MB-231) [µM] | GI50 (Hep 3B) [µM] | other results
1 | O=C(Nc1ccc(F)cc1)c1ccc(CNC2=C(Cl)C(=O)c3ccccc3C2=O)cc1 [MPT0L082] | 10 to 30 | 10 to 30 | 10 to 30 | 10 to 30 | 
2 | O=C(Nc1ccc2[nH]ncc2c1)c1ccc(CNC2=C(Cl)C(=O)c3ccccc3C2=O)cc1 [MPT0L097, 4-((3-chloro-1,4-dioxo-1,4-dihydronaphthalen-2-ylamino)methyl)-N-(1H-indazol-5-yl)benzamide] | 10 to 30 | 10 to 30 | 10 to 30 | 10 to 30 | 
3 | Cc1cc(NC(=O)c2ccc(CNC3=C(Cl)C(=O)c4ccccc4C3=O)cc2)n[nH]1 [MPT0L099, 4-((3-chloro-1,4-dioxo-1,4-dihydronaphthalen-2-ylamino)methyl)-N-(5-methyl-3H-pyrazol-3-yl)benzamide] | 10 to 30 | 10 to 30 | 10 to 30 | 10 to 30 | 
4 | O=C(/C=C/c1ccc2c(c1)CCN2S(=O)(=O)c1ccccc1)NO [MPT0E028, reference compound] |  |  |  |  | Hazard Ratio [1, 2]: 3.677; Median survival [1, 2]: 40.5; Median survival Ratio [1, 2]: 0.5605; Hazard Ratio ([1]; Group 1 vs 7: 100/25 mg/kg): 1.43; Median survival ([1]; Group 1 vs 7: 100/25 mg/kg): 33.95; Median survival Ratio ([1]; Group 1 vs 7: 100/25 mg/kg): 0.6686; Hazard Ratio ([1]; Group 1 vs 8: 50/25 mg/kg): 3.433; Median survival ([1]; Group 1 vs 8: 50/25 mg/kg): 45.3; Median survival Ratio ([1]; Group 1 vs 8: 50/25 mg/kg): 0.5011; MTV (n) Day 59 [1, 3]: 454 mm^3; Median TTE [1, 3]: 40.5 days; T-C [1, 3]: 17.8 days; antitumor activity (logrank analysis) [1, 3]: produced significant antitumor activity; % TGD ([1]; Group 2: MPT0E028 25 mg/kg po qd to endpoint, 25 mg/kg): 78%; Logrank Significance ([1]; Group 2: MPT0E028 25 mg/kg po qd to endpoint, compared to Group 1): * (* = P < 0.05); Day of Max % BW Loss ([1]; mouse, in vivo, po, 25 mg/kg): 5 days; Max % BW Loss ([1]; mouse, in vivo, po, 25 mg/kg): −7.7%; No. of NTR ([1]; mouse, in vivo, po, 25 mg/kg): 0; No. of TR ([1]; mouse, in vivo, po, 25 mg/kg): 0
5 | O=C(Nc1ccc2ncccc2c1)c1ccc(CNC2=C(Cl)C(=O)c3ccccc3C2=O)cc1 [MPT0L108, 4-((3-chloro-1,4-dioxo-1,4-dihydronaphthalen-2-ylamino)methyl)-N-(quinolin-6-yl)benzamide] | 8.09 ± 0.57 | 6.82 ± 0.35 | 10 to 30 | 10 to 30 | 

More lines, main results first:

Row | IC50 (HL-60) [µM] | GI50 (HCT-116) [µM] | GI50 (MDA-MB-231) [µM] | Compound | GI50 (Hep 3B) [µM] | other results
6 | 10 to 30 | 10 to 30 | 10 to 30 | O=C(Nc1ccc2[nH]cnc2c1)c1ccc(CNC2=C(Cl)C(=O)c3ccccc3C2=O)cc1 [MPT0L093, N-(1H-benzo[d]imidazol-5-yl)-4-((3-chloro-1,4-dioxo-1,4-dihydronaphthalen-2-ylamino)methyl)benzamide] | 10 to 30 | 
7 | 8.53 ± 0.55 | 10 to 30 | 10 to 30 | O=C(Nc1nccs1)c1ccc(CNC2=C(Cl)C(=O)c3ccccc3C2=O)cc1 [MPT0L085, 4-(((3-chloro-1,4-dioxo-1,4-dihydronaphthalen-2-yl)amino)methyl)-N-(thiazol-2-yl)benzamide] | 10 to 30 | 
8 | 10 to 30 | 10 to 30 | 10 to 30 | O=C(Nc1ccccc1)c1ccc(CNC2=C(Cl)C(=O)c3ccccc3C2=O)cc1 [MPT0L083, 4-(((3-chloro-1,4-dioxo-1,4-dihydronaphthalen-2-yl)amino)methyl)-N-phenylbenzamide] | 10 to 30 | 
9 | 6.43 ± 2.44 | 10 to 30 | 10 to 30 | O=C(Nc1cccc2cccnc12)c1ccc(CNC2=C(Cl)C(=O)c3ccccc3C2=O)cc1 [MPT0L109, 4-((3-chloro-1,4-dioxo-1,4-dihydronaphthalen-2-ylamino)methyl)-N-(quinolin-8-yl)benzamide] | 10 to 30 | 
10 | 10 to 30 | 10 to 30 | 10 to 30 | Cc1cc(N)nn1C(=O)c1ccc(CNC2=C(Cl)C(=O)c3ccccc3C2=O)cc1 [MPT0L100, 2-(4-(3-amino-5-methyl-1H-pyrazole-1-carbonyl)benzylamino)-3-chloronaphthalene-1,4-dione] | 10 to 30 | 
11 | 10 to 30 | 10 to 30 | 10 to 30 | O=C(Nc1cccnc1)c1ccc(CNC2=C(Cl)C(=O)c3ccccc3C2=O)cc1 [MPT0L055, 4-(((3-chloro-1,4-dioxo-1,4-dihydronaphthalen-2-yl)amino)methyl)-N-(pyridin-3-yl)benzamide] | 10 to 30 | 
